Assay results reported in patent US20190099259A1, “Method for Treatment and Prevention of Biofilm Formation During Breast Augmentation Procedures” (Integrated Healing Technologies, LLC, priority 2017, published 2019).

What was measured:
R. pickettii biofilm = assay: biofilm assay on silicone breast implants; type: cell-based, Ralstonia Pickettii
Method: Biofilm assays were performed after 2 to 3 mL of 10^5 CFU/mL bacterial inoculum was added to each tube containing the respective implants and placed into a shaking incubator (250-300 rpm) at 30° C. for 24 hours, allowing for formation of biofilm on implants. After 24 hours' incubation, the implants having the biofilm were rinsed twice with Butterfields phosphate buffer. After the rinses, the implants were aseptically transferred to tubes containing 5 mL test articles for contact time points; 5 min and 2 hours. Postincubation, the implants were rinsed twice with Butterfields phosphate buffer, placed in 5 mL of sterile neutralizing buffer and sonicated at 50 to 60 Hz for 5 minutes. Tenfold serial dilutions were performed for each sample tube using neutralizing buffer as the diluent. A total of 100 μL of appropriate dilutions of each sample were plated on a nutrient agar plate in duplicates and incubated overnight. The colonies were counted postincubation. Data were evaluated by comparing the difference in CFU/mL for the implants and blank control at 5 min and 2 hours.

[1] = tested on: microbial cells and spore; conditions: cited from earlier work

[H]/N=C(\N/C(=N/[H])NCCCCCCNC(=N)NC(=N)Nc1ccc(Cl)cc1)Nc1ccc(Cl)cc1 [Chlorhexidine gluconate]
antibiofilm activity (R. pickettii biofilm; Biocell implant, 5 minutes): did not have antibiofilm activity
antibiofilm activity (R. pickettii biofilm; Biocell implant, 2 hours): did not have antibiofilm activity
antibiofilm activity (R. pickettii biofilm; Siltex implant, 5 minutes): did not have antibiofilm activity
antibiofilm activity (R. pickettii biofilm; Siltex implant, 2 hours): did not have antibiofilm activity
penetration of established biofilm (R. pickettii biofilm; after two hours): unable to penetrate established biofilm
antibiofilm activity (R. pickettii biofilm; smooth implant, 5 minutes): limited reduction
antibiofilm activity (R. pickettii biofilm; smooth implant, 2 hours): complete eradication

OCl [Hypochlorous acid, hypochlorous acid]
effect in the biofilm model (R. pickettii biofilm; general statement): effective at reducing Ralstonia Pickettii bacterial numbers
potency as a germicide versus equivalent molar ratio of hypochlorite anion [1]: 80-100 times
